# Data reported in ChEMBL document CHEMBL3102699, “Synthesis and evaluation of 4-substituted piperidines and piperazines as balanced affinity μ opioid receptor (MOR) agonist/δ opioid receptor (DOR) antagonist ligands” (Bioorg Med Chem Lett, 2014).
# Columns and labels:
# [1] = molecular target: T1, Delta-type opioid receptor (Rattus norvegicus, UniProt P33533); assay: Agonist activity at rat delta opioid receptor expressed in rat C6 cells assessed as stimulation of [35S]-GTPgammaS binding after 1 hr by liquid scintillation counting analysis; type: functional, cell-based
# [2] = molecular target: Mu-type opioid receptor (Rattus norvegicus) (UniProt P33535); assay: Agonist activity at rat mu opioid receptor expressed in rat C6 cells assessed as stimulation of [35S]-GTPgammaS binding at 10 uM after 1 hr by liquid scintillation counting analysis relative to DAMGO; type: functional, cell-based
# Mu-type opioid receptor [3] = molecular target: T2, Mu-type opioid receptor (Rattus norvegicus, UniProt P33535); assay: Displacement of [3H]diprenorphine from rat mu opioid receptor expressed in rat C6 cell membranes after 1 hr by liquid scintillation counting analysis
# [4] = molecular target: T1, Delta-type opioid receptor; assay: Displacement of [3H]diprenorphine from rat delta opioid receptor expressed in rat C6 cell membranes after 1 hr by liquid scintillation counting analysis
# Mu-type opioid receptor [5] = molecular target: T2, Mu-type opioid receptor; assay: Agonist activity at rat mu opioid receptor expressed in rat C6 cells assessed as stimulation of [35S]-GTPgammaS binding after 1 hr by liquid scintillation counting analysis; type: functional, cell-based
# [6] = molecular target: T3, Kappa-type opioid receptor (Homo sapiens, UniProt P41145); assay: Agonist activity at human kappa opioid receptor expressed in CHO cells assessed as stimulation of [35S]-GTPgammaS binding after 1 hr by liquid scintillation counting analysis; type: functional, cell-based
# [7] = molecular target: T3, Kappa-type opioid receptor; assay: Displacement of [3H]diprenorphine from human kappa opioid receptor expressed in CHO cell membranes after 1 hr by liquid scintillation counting analysis
# [8] = molecular target: T3, Kappa-type opioid receptor; assay: Agonist activity at human kappa opioid receptor expressed in CHO cells assessed as stimulation of [35S]-GTPgammaS binding at 10 uM after 1 hr by liquid scintillation counting analysis relative to U69,593; type: functional, cell-based
# Mu-type opioid receptor [9] = molecular target: Mu-type opioid receptor (Homo sapiens, UniProt P35372); assay: Binding affinity to mu opioid receptor (unknown origin)
# [10] = molecular target: T3, Kappa-type opioid receptor; assay: Binding affinity to kappa opioid receptor (unknown origin)
# [11] = molecular target: Delta-type opioid receptor (Homo sapiens, UniProt P41143); assay: Binding affinity to delta opioid receptor (unknown origin)
# Delta-type opioid receptor (Homo sapiens, UniProt P41143), sequence (P41143 whole entry): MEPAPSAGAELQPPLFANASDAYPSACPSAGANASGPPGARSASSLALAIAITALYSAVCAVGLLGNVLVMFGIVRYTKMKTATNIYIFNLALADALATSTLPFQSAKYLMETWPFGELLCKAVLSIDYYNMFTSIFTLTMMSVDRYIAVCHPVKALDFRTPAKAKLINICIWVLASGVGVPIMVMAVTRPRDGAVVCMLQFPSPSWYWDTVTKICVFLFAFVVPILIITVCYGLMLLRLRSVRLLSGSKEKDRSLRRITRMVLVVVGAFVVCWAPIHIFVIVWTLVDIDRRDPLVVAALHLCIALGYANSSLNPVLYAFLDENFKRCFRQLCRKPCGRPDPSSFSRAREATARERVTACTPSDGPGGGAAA
# T1 sequence (P33533 whole entry): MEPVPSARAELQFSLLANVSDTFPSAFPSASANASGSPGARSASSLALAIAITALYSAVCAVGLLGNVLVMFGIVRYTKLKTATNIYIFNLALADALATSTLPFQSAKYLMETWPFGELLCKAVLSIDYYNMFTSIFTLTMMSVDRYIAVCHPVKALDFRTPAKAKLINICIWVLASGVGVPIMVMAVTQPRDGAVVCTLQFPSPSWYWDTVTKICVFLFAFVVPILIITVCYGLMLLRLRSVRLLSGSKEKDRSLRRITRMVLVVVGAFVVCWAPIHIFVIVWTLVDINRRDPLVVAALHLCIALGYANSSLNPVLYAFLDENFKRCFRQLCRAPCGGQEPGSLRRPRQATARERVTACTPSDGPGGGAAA
# T2 sequence (P33535 whole entry): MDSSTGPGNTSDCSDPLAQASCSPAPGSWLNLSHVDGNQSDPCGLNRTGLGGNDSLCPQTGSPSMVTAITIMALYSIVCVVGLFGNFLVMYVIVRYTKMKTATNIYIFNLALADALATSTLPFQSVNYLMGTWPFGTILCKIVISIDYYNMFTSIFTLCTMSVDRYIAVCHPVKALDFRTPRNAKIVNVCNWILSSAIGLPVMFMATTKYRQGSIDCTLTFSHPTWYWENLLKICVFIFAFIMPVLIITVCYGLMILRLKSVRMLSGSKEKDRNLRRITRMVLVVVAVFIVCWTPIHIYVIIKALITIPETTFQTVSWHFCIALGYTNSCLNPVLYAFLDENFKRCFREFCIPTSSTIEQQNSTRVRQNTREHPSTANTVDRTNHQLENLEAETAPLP
# Mu-type opioid receptor (Rattus norvegicus), sequence (P33535 whole entry): as above
# T3 sequence (P41145 whole entry): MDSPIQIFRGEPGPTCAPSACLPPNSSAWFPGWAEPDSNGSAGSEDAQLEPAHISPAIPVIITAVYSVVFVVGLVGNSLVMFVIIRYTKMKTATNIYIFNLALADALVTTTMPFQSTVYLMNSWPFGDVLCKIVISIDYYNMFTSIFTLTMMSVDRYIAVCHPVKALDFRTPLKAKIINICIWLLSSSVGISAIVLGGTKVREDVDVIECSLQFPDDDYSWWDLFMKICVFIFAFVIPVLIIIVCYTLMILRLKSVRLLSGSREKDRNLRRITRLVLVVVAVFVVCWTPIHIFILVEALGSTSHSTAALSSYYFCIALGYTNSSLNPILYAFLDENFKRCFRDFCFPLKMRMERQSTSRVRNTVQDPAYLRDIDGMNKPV
# Mu-type opioid receptor (Homo sapiens, UniProt P35372), sequence (P35372 whole entry): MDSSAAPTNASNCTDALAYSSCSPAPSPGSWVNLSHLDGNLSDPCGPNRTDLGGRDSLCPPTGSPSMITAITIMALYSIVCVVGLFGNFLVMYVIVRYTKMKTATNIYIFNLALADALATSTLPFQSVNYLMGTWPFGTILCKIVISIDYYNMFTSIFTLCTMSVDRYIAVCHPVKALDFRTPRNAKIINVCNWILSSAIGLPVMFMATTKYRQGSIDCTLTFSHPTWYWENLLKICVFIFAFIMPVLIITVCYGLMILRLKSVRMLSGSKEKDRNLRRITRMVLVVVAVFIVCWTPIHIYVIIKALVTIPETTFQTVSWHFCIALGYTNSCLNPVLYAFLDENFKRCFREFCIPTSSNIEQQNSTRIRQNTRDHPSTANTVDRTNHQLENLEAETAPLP
Structure (SMILES),EC50 [1],%max [2] [%],Ki (Mu-type opioid receptor [3]) [µM],Ki [4] [µM],EC50 (Mu-type opioid receptor [5]; read-out: EC50) [µM],EC50 ([6]; cho),EC50 (Mu-type opioid receptor [5]; c6),Ki [7] [µM],EC50 ([6]; read-out: EC50) [µM],%max [8] [%],Ki (Mu-type opioid receptor [9]) [µM],Ki [10] [µM],Ki [11] [µM]
Cc1cc(O)cc(C)c1C[C@H](N)C(=O)N1CCN(C/C=C/Cc2ccccc2)CC1,Not Active,36,0.00029,0.023,0.02,,,,,,,,
Cc1cc(O)cc(C)c1C[C@H](N)C(=O)N1CCC(Cc2ccccc2)c2ccccc21 (stereo partly specified),Not Active,,0.029,0.014,,Not Active,Not Active,0.31,,,,,
Cc1cc(O)cc(C)c1C[C@H](N)C(=O)N1CCN(CCCCc2ccccc2)CC1,Not Active,43,0.00045,0.0066,0.064,Not Active,,0.078,,,,,
Cc1cc(O)cc(C)c1C[C@H](N)C(=O)N1CCN(CCCc2ccccc2)CC1,Not Active,23,0.0038,0.036,0.15,Not Active,,0.25,,,,,
Cc1cc(O)cc(C)c1C[C@H](N)C(=O)N1CCN(CCCCCc2ccccc2)CC1,Not Active,42,0.00042,0.0069,0.053,,,0.039,0.66,12,,,
Cc1cc(O)cc(C)c1C[C@H](N)C(=O)N1CCC(Cc2ccccc2)CC1,Not Active,,0.0014,0.0078,,Not Active,Not Active,0.14,,,,,
Cc1cc(O)cc(C)c1C[C@H](N)C(=O)N1CCN(C/C=C/c2cccc3ccccc23)CC1,Not Active,,,,,Not Active,Not Active,,,,,,
Cc1cc(O)cc(C)c1C[C@H](N)C(=O)N1CCCc2ccccc21,,,,,,,,,,,0.0258,0.0365,0.033
Cc1cc(O)cc(C)c1C[C@H](N)C(=O)N1CCC(CCCc2ccccc2)CC1,Not Active,26,0.002,0.012,0.119,Not Active,,0.11,,,,,
Cc1cc(O)cc(C)c1C[C@H](N)C(=O)N1CCN(CCCc2cccc3ccccc23)CC1,Not Active,,,,,Not Active,,,,,,,
Cc1cc(O)cc(C)c1C[C@H](N)C(=O)N1CCN(CCC(c2ccccc2)c2ccccc2)CC1,Not Active,,0.0011,0.021,,Not Active,Not Active,0.15,,,,,
Cc1cc(O)cc(C)c1C[C@H](N)C(=O)N1CCN(C/C=C\Cc2ccccc2)CC1,Not Active,49,0.0003,0.028,0.041,Not Active,,,,,,,
